This is an account of results in patent US20070117833A1, “Pharmaceutical compositions” (priority 2003, published 2007).

One series relates to rheumatoid arthritis. The series can be described thus: Placebo-controlled, double blind clinical trial in RA patients who are methotrexate partial responders. Type of series: in vivo, human. As to conditions: 6 mg/day in combination with background methotrexate. The protocol: 120 patients who are methotrexate partial responders are randomized in 2 groups to receive the mTOR inhibitor a) or placebo once daily for 12 weeks while continuing their background methotrexate treatment. There is an initial Screening visit (days −21 to −7) prior to the baseline. Disease status is assessed at the Screening and Baseline visits. During the 12 weeks treatment period the patients will be seen at Weeks 1, 2, 4, 8 and 12 and in the follow-up period at Weeks 14, 16, 20 and 24.
The criteria for inclusion of the patients in the trial: they must have a diagnosis of RA as defined by the […] revised ARA criteria with disease duration of no less than 6 months. All patients must have active RA as defined by the following parameters: • at least 6 swollen and 9 tender joints based on 58/60 joint count upon entry into the study • one of the following: erythrocyte sedimentation rate (ESR) >28 mm/hr, C-reactive protein (CRP)>1.5 mg/dL or morning stiffness>45 minutes
Patients must have received methotrexate for at least 16 weeks and must be on a stable dose (≧7.5 mg/week) and route of administration for at least 8 weeks prior to Day 1. […]
The primary efficacy outcome measure is the attainment of ACR20 criteria for improvement of RA and the proportion of patients in each group meeting the ACR20 criteria is determined. […]

The test system of a further series is LPS induced fever. The series can be described thus: LPS fever (antipyretic effects). It is filed as in vivo. Particulars: rats, LPS 100 μg/kg s.c., p.o.; (95% limits). The protocol:
LPS fever. An injection of lypopolysaccharide (LPS) at a dose of 100 μg/kg in 5 ml/kg is given subcutaneously, and 2 hours later the temperature is measured using a rectal thermocouple. The rats are then placed into matched treatment groups according to their temperature responses. At time +4 hours, the mTOR inhibitor is administered p.o., and the final temperatures measured again at time +6 hours. The increase in temperature is calculated for each animal and the % inhibition determined for each treatment group compared to the vehicle control group.

A short description of series [1]: 4-week toxicity study in rats. It is filed as in vivo. The protocol: (§1) Rapamycin or derivatives thereof are well tolerated at dosages required for use in accordance with the present invention. For example, the NTEL for Compound A in a 4-week toxicity study is 0.5 mg/kg/day in rats and 1.5 mg/kg/day in monkeys.
For series [2], the system named is human rheumatoid synovial fibroblast. Briefly: Spontaneous proliferation of human rheumatoid synovial fibroblast. Type of series: cell-based.
In another series the test system is paw hyperalgesia. Briefly: Anti-nociceptive activity in a model of inflammatory pain (intra-plantar yeast hyperalgesia). Type of series: in vivo, male OFA rats. The protocol: Hyperalgesia is induced by an intra-plantar yeast injection and nociception measured by applying increasing pressure to the foot until the animal vocalizes or withdraws its foot from the pressure pad. The baseline pressure required to induce vocalization or withdrawal of the paw of male OFA rats is measured (−2 hours), followed by an intra-plantar injection of 100 μl of a 20% yeast suspension in water in the hind paw. The rats are treated orally with rapamycin or a derivative thereof (0.5, 2 or 4 mg/kg) or vehicle (saline) p.o. 2 hours later (0 hours), and the pressure test repeated 1 and 2 hours after dosing. The pressure required to induce vocalization or paw withdrawal of the compound-treated rats at these time-points is compared to that of vehicle-treated animals.

The nature of series [3]: 4-week toxicity study in monkeys. Type of series: in vivo. On the procedure:
as §1

The next series relates to IL-1β induced fever. The series can be described thus: IL-1 fever (antipyretic effects). It is filed as in vivo. As to conditions: rats, 100 ng IL-1β i.v., p.o. On the procedure: IL-1 fever. Baseline temperature is measured and the rats placed into matched groups. The animals are dosed with the mTOR inhibitor (0.5, 2 or 4 mg/kg) p.o., and 30 minutes later given an injection of 100 ng IL-1β i.v. At time +4hours the final temperatures are measured and the % inhibition calculated as for LPS fever.

As for `CO[C@H]1C[C@@H]2CC[C@@H](C)[C@@](O)(O2)C(=O)C(=O)N2CCCC[C@H]2C(=O)O[C@H]([C@H](C)C[C@@H]2CC[C@@H](OCCO)[C@H](OC)C2)CC(=O)[C@H](C)/C=C(\C)[C@@H](O)[C@@H](OC)C(=O)[C@H](C)C[C@H](C)/C=C/C=C/C=C/1C` [Compound A, 40-0-(2-hydroxyethyl)-rapamycin], the “ACR Responders (in %) to ACR20” value in the series on rheumatoid arthritis (Week 2) is recorded as 14.8%; with rheumatoid arthritis (Week 12), 36.1%. Moreover, the “ED50 inhibition of LPS-induced fever” value with LPS induced fever is 1.9 (1.21-2.41) mg/kg p.o. Also, the results for the NTEL in series [1] and in series [3] were 0.5 mg/kg/day and 1.5 mg/kg/day, respectively. Moreover, the “concentration at which maximal effects are observed” value in series [2] (bromodeoxyuridine method) came to 10 pM. Also, the “suppression of the growth of synovial cells” value in series [2] (by both criteria: bromodeoxyuridine incorporation and direct counting of viable cells) is reported as “significantly suppresses”. For the same molecule, in series [2] (direct cell counting), the “concentration at which maximal effects are shown” value stood at 10 nM. Also, the “inhibition of paw hyperalgesia” value with paw hyperalgesia (2 mg/kg p.o., 1 hour after dosing) is “significantly inhibits”; with paw hyperalgesia (4 mg/kg p.o., 1 hour after dosing) it was “significantly inhibits”; with paw hyperalgesia (4 mg/kg p.o., 2 hours after dosing), “significantly inhibits”. Moreover, in the series with IL-1β induced fever, the “ED50 inhibition of IL-1β-induced fever” value is listed as below 0.54 mg/kg p.o.
Regarding `CO[C@H]1C[C@@H]2CC[C@@H](C)[C@@](O)(O2)C(=O)C(=O)N2CCCC[C@H]2C(=O)O[C@H]([C@H](C)C[C@@H]2CC[C@@H](O)[C@H](OC)C2)CC(=O)[C@H](C)/C=C(\C)[C@@H](O)[C@@H](OC)C(=O)[C@H](C)C[C@H](C)/C=C/C=C/C=C/1C` [rapamycin, Rapamycin, reference compound], in series [2] (synovial cell growth assessed by total intracellular ATP levels), the “concentration at which suppression is maximal” value was 10 pM.
